According to ChEMBL document CHEMBL1201862, “PubChem BioAssay data set” (2004):
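Dose response: 5 concentrations. Exposure: 48 h. Format: 96-well plates. Endpoint: linear interpolation; highest concentration if not reached. The concentration for 50% growth inhibition is given as GI50.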 Activity calls are given as the source filed them. No stated cut-off is given here; in the data, active = GI50 up to about 1.1 µM and inactive = higher.

Tests used:
Experiment in all cases: inhibition of tumour cell growth, NCI panel, 48 h
786-0 = system: 786-0
A549 = system: A549
ACHN = system: ACHN
BT-549 = system: BT-549
CAKI-1 = system: CAKI-1
CCRF-CEM = system: CCRF-CEM
COLO 205 = system: COLO 205
DU-145 = system: DU-145
EKVX = system: EKVX
HCC 2998 = system: HCC 2998
HCT-116 = system: HCT-116
HCT-15 = system: HCT-15
HL-60 = system: HL-60
HOP-62 = system: HOP-62
HT-29 = system: HT-29
Hs-578T = system: Hs-578T
IGROV-1 = system: IGROV-1
K562 = system: K562
KM12 = system: KM12
LOX IMVI = system: LOX IMVI
M14 = system: M14
MCF7 = system: MCF7
MDA-MB-231 = system: MDA-MB-231
MDA-MB-435 = system: MDA-MB-435
MDA-N = system: MDA-N
MOLT-4 = system: MOLT-4
NCI-H226 = system: NCI-H226
NCI-H23 = system: NCI-H23
NCI-H460 = system: NCI-H460
NCI-H522 = system: NCI-H522
NCI/ADR-RES = system: NCI/ADR-RES
OVCAR-3 = system: OVCAR-3
OVCAR-4 = system: OVCAR-4
OVCAR-5 = system: OVCAR-5
OVCAR-8 = system: OVCAR-8
PC-3 = system: PC-3
RPMI-8226 = system: RPMI-8226
RXF 393 = system: RXF 393
SF-268 = system: SF-268
SF-295 = system: SF-295
SK-MEL-28 = system: SK-MEL-28
SK-MEL-2 = system: SK-MEL-2
SK-MEL-5 = system: SK-MEL-5
SK-OV-3 = system: SK-OV-3
SN12C = system: SN12C
SNB-19 = system: SNB-19
SNB-75 = system: SNB-75
SR = system: SR
SW-620 = system: SW-620
T47D = system: T47D
TK-10 = system: TK-10
U-251 = system: U-251
UACC-257 = system: UACC-257
UACC-62 = system: UACC-62
UO-31 = system: UO-31
HOP-92 = system: HOP-92
Malme-3M = system: Malme-3M
SF-539 = system: SF-539

SMILES: CCC(=O)n1c(=O)n(-c2ccc([N+](=O)[O-])cc2)c(=O)n1C(=O)CC
- GI50 (786-0): > 100 µM (inactive)
- GI50 (A549): > 100 µM (inactive)
- GI50 (ACHN): > 100 µM (inactive)
- GI50 (BT-549): > 100 µM (inactive)
- GI50 (CAKI-1): > 100 µM (inactive)
- GI50 (CCRF-CEM): > 100 µM (inactive)
- GI50 (COLO 205): > 100 µM (inactive)
- GI50 (DU-145): > 100 µM (inactive)
- GI50 (EKVX): > 100 µM (inactive)
- GI50 (HCC 2998): > 100 µM (inactive)
- GI50 (HCT-116): > 100 µM (inactive)
- GI50 (HCT-15): > 100 µM
- GI50 (HL-60): > 100 µM (inactive)
- GI50 (HOP-62): > 100 µM (inactive)
- GI50 (HT-29): > 100 µM (inactive)
- GI50 (Hs-578T): > 100 µM (inactive)
- GI50 (IGROV-1): > 100 µM (inactive)
- GI50 (K562): > 100 µM (inactive)
- GI50 (KM12): > 100 µM (inactive)
- GI50 (LOX IMVI): > 100 µM (inactive)
- GI50 (M14): > 100 µM (inactive)
- GI50 (MCF7): > 100 µM (inactive)
- GI50 (MDA-MB-231): > 100 µM (inactive)
- GI50 (MDA-MB-435): > 100 µM (inactive)
- GI50 (MDA-N): > 100 µM (inactive)
- GI50 (MOLT-4): > 100 µM (inactive)
- GI50 (NCI-H226): > 100 µM (inactive)
- GI50 (NCI-H23): > 100 µM (inactive)
- GI50 (NCI-H460): > 100 µM (inactive)
- GI50 (NCI-H522): > 100 µM (inactive)
- GI50 (NCI/ADR-RES): > 100 µM (inactive)
- GI50 (OVCAR-3): > 100 µM (inactive)
- GI50 (OVCAR-4): > 100 µM (inactive)
- GI50 (OVCAR-5): > 100 µM (inactive)
- GI50 (OVCAR-8): > 100 µM (inactive)
- GI50 (PC-3): > 100 µM (inactive)
- GI50 (RPMI-8226): > 100 µM (inactive)
- GI50 (RXF 393): > 100 µM (inactive)
- GI50 (SF-268): > 100 µM (inactive)
- GI50 (SF-295): > 100 µM (inactive)
- GI50 (SK-MEL-28): > 100 µM (inactive)
- GI50 (SK-MEL-2): > 100 µM (inactive)
- GI50 (SK-MEL-5): > 100 µM (inactive)
- GI50 (SK-OV-3): > 100 µM (inactive)
- GI50 (SN12C): > 100 µM (inactive)
- GI50 (SNB-19): > 100 µM (inactive)
- GI50 (SNB-75): > 100 µM (inactive)
- GI50 (SR): > 100 µM (inactive)
- GI50 (SW-620): > 100 µM (inactive)
- GI50 (T47D): > 100 µM (inactive)
- GI50 (TK-10): > 100 µM (inactive)
- GI50 (U-251): > 100 µM (inactive)
- GI50 (UACC-257): > 100 µM (inactive)
- GI50 (UACC-62): > 100 µM (inactive)
- GI50 (UO-31): > 100 µM (inactive)

SMILES: CC(=O)O[C@@H]1CC2[C@@H](CCC3Cc4nc5c(nc4C[C@@]32C)CC2CC[C@@H]3C(CC[C@@]4(C)C3CC[C@@H]4C(C)CCCC(C)C)[C@@]2(C)C5)C2C[C@@H]3OC4(CCC(C)CO4)C(C)[C@@H]3[C@]21C (some centres undefined)
- GI50 (786-0): 53.7 µM (inactive)
- GI50 (A549): > 100 µM (inactive)
- GI50 (ACHN): 55.7 µM (inactive)
- GI50 (BT-549): > 100 µM (inactive)
- GI50 (CCRF-CEM): > 100 µM (inactive)
- GI50 (COLO 205): > 100 µM (inactive)
- GI50 (DU-145): > 100 µM (inactive)
- GI50 (EKVX): > 100 µM (inactive)
- GI50 (HCC 2998): > 100 µM (inactive)
- GI50 (HCT-116): > 100 µM (inactive)
- GI50 (HCT-15): > 100 µM
- GI50 (HL-60): > 100 µM (inactive)
- GI50 (HOP-62): 22.8 µM (inactive)
- GI50 (HOP-92): 25.6 µM (inactive)
- GI50 (HT-29): > 100 µM (inactive)
- GI50 (Hs-578T): 21.1 µM (inactive)
- GI50 (IGROV-1): > 100 µM (inactive)
- GI50 (K562): > 100 µM (inactive)
- GI50 (KM12): > 100 µM (inactive)
- GI50 (M14): > 100 µM (inactive)
- GI50 (MCF7): > 100 µM (inactive)
- GI50 (MDA-MB-231): > 100 µM (inactive)
- GI50 (MDA-MB-435): > 100 µM (inactive)
- GI50 (MDA-N): > 100 µM (inactive)
- GI50 (MOLT-4): > 100 µM (inactive)
- GI50 (Malme-3M): > 100 µM (inactive)
- GI50 (NCI-H226): 23.4 µM (inactive)
- GI50 (NCI-H23): > 100 µM (inactive)
- GI50 (NCI-H460): > 100 µM (inactive)
- GI50 (NCI-H522): > 100 µM (inactive)
- GI50 (NCI/ADR-RES): 30.3 µM (inactive)
- GI50 (OVCAR-3): > 100 µM (inactive)
- GI50 (OVCAR-4): > 100 µM (inactive)
- GI50 (OVCAR-5): > 100 µM (inactive)
- GI50 (OVCAR-8): > 100 µM (inactive)
- GI50 (PC-3): > 100 µM (inactive)
- GI50 (RPMI-8226): > 100 µM (inactive)
- GI50 (RXF 393): 19.9 µM (inactive)
- GI50 (SF-268): 39.3 µM (inactive)
- GI50 (SF-295): 53.8 µM (inactive)
- GI50 (SF-539): > 100 µM (inactive)
- GI50 (SK-MEL-28): > 100 µM (inactive)
- GI50 (SK-MEL-5): > 100 µM (inactive)
- GI50 (SK-OV-3): 3.04 µM (inactive)
- GI50 (SN12C): > 100 µM (inactive)
- GI50 (SNB-19): 65.2 µM (inactive)
- GI50 (SNB-75): 2.74 µM (inactive)
- GI50 (SR): > 100 µM (inactive)
- GI50 (SW-620): > 100 µM (inactive)
- GI50 (T47D): > 100 µM (inactive)
- GI50 (TK-10): 33.1 µM (inactive)
- GI50 (U-251): 84.1 µM (inactive)
- GI50 (UACC-257): > 100 µM (inactive)
- GI50 (UACC-62): 2.01 µM (inactive)
